Reference: the OPERA property sets (Mansouri et al. 2018)
Converted amounts (≈) assume the structure as drawn.

Compound | solubility | solubility (25 °C) | other results
O=C(O)CCSCCC(=O)O | – | – | solubility (26 °C): 209 mM (≈ 37200 µg/mL)
Cc1cc(O)c(Cl)c(C)c1Cl | 1.05 mM (≈ 200 µg/mL) | – | –
C[C@@H]1C(=O)OC[C@H]2[C@@H]1CC[C@@H]2C | – | 11.9 mM (≈ 2000 µg/mL) | –
C=CCC(C(=O)NC(N)=O)C(C)C (stereo unspecified) | 1.79 mM (≈ 330 µg/mL) | – | –
Cc1cc(NS(=O)(=O)c2ccc(N)cc2)sn1 | 83.9 mM (≈ 22600 µg/mL) | – | –
CC1(C)[C@H]2CC[C@]1(C)C(=O)[C@H]2O | 119 mM (≈ 20000 µg/mL) | – | –
CC(C[N+](C)(C)C)OC(N)=O.[Cl-] (stereo unspecified) | 3180 mM | – | –
NC1(C(=O)O)CCCC1 | – | 387 mM (≈ 50000 µg/mL) | –
COc1cc([C@@H]2c3cc4c(cc3[C@H](O)[C@H]3COC(=O)[C@@H]23)OCO4)cc(OC)c1OC | – | 0.241 mM (≈ 100 µg/mL) | –
CN1CCN(C(c2ccccc2)c2ccccc2)CC1 | – | < 3.75 mM | –
O=C(c1ccccc1O)N1CCOCC1 | 19.8 mM (≈ 4100 µg/mL) | – | –
C=C(C)Cn1c(N)cc(=O)n(C)c1=O | – | 102 mM (≈ 20000 µg/mL) | –
C#CC1(OC(N)=O)CCCCC1 | – | 15 mM (≈ 2500 µg/mL) | –
CC(=O)Oc1ccc(Br)cc1C(=O)O | 2.57 mM (≈ 667 µg/mL) | – | –
O=C(O)[C@H](O)[C@@H](O)[C@H](O)[C@H](O)CO | – | 1610 mM (≈ 316000 µg/mL) | –
CC(C)(C)OOC(C)(C)C | 0.684 mM (≈ 100 µg/mL) | – | –
Nc1ccc(S(=O)(=O)NC(=O)c2ccccc2)cc1 | – | – | solubility (30 °C): 1.12 mM (≈ 310 µg/mL)
Nc1ccc(S(=O)(=O)O)c2cc(S(=O)(=O)O)ccc12 | 551 mM (≈ 167000 µg/mL) | – | –
Nc1nc(N)c(O[C@@H]2O[C@H](CO)[C@@H](O)[C@H](O)[C@H]2O)c(=O)[nH]1 | 32.9 mM (≈ 10000 µg/mL) | – | –
COC(=O)CC(C)=O | 4310 mM (≈ 500000 µg/mL) | – | –
CN(Cc1cc(Br)cc(Br)c1N)C1CCCCC1 | 10.6 mM (≈ 4000 µg/mL) | – | –

Compound | solubility | solubility (25 °C) | other results
C=C1CCO[C@]2([C@H](O)[C@@](C)(O)CO)NC(=O)[C@@]1(O)NC2=O | 635 mM (≈ 192000 µg/mL) | – | –
NS(=O)(=O)c1cc2c(cc1C(F)(F)F)NC=NS2(=O)=O | – | 152 mM (≈ 50000 µg/mL) | –
CN(C)CCc1ccc(O)cc1 | 42.4 mM (≈ 7000 µg/mL) | – | –
C/C=C\C(=O)OC1C[C@H]2O[C@@H]3C=C(C)C(=O)C[C@]3(C)[C@]1(C)C21CO1 (stereo partly specified) | – | 1.2 mM (≈ 400 µg/mL) | –
O=c1[nH]c(=O)n([C@H]2C[C@H](O)[C@@H](CO)O2)cc1I | – | 5.65 mM (≈ 2000 µg/mL) | –
CC(O)(P(=O)(O)O)P(=O)(O)O | – | – | solubility (20 °C): 3350 mM (≈ 690000 µg/mL)
Cc1cnc(NS(=O)(=O)c2ccc(N)cc2)nc1 | – | – | solubility (pH 5.5): 1.51 mM (≈ 400 µg/mL)
O=C1CN=C(c2ccccc2Cl)c2cc([N+](=O)[O-])ccc2N1 | – | 0.317 mM (≈ 100 µg/mL) | –
Cn1c([N+](=O)[O-])cnc1COC(N)=O | – | 14.3 mM (≈ 2870 µg/mL) | –
CC1(C)CC(=O)CC(=O)C1 | – | 29.7 mM (≈ 4160 µg/mL) | –
C=C[C@H]1C[N@@]2CC[C@H]1C[C@H]2C12Nc3ccccc3C1(O)CCO2 (stereo partly specified) | 2.14 mM (≈ 667 µg/mL) | – | –
CCC(Br)(CC)C(=O)NC(N)=O | 1.4 mM (≈ 333 µg/mL) | – | –
CN1C(=O)OC(C)(C)C1=O | 349 mM (≈ 50000 µg/mL) | – | –
NC(Cc1n[nH]c2ccccc12)C(=O)O (stereo unspecified) | – | – | solubility (29 °C): 39 mM (≈ 8000 µg/mL)
OC[C@@H](O)[C@H](O)[C@@H](O)CO | 4220 mM (≈ 642000 µg/mL) | – | –
Cc1ccc(C(C)C)c(O)c1C(=O)O | – | – | solubility (20 °C): 0.515 mM (≈ 100 µg/mL)
O=C(C(Cl)Cl)N(CCO)Cc1ccc(Oc2ccc([N+](=O)[O-])cc2)cc1 | 0.00751 mM (≈ 3 µg/mL) | – | –
O=CNc1ccccc1 | – | 210 mM (≈ 25400 µg/mL) | –
COc1c2c(cc3oc(=O)ccc13)OC(C)(C)C=C2 | 0.155 mM (≈ 40 µg/mL) | – | –
O=P([O-])([O-])O[C@@H]1[C@@H](O)[C@H](O)[C@@H](O)[C@H](O)[C@@H]1O | 1280 mM | – | –
Cc1csc(NS(=O)(=O)c2ccc(N)cc2)n1 | 7.43 mM (≈ 2000 µg/mL) | – | –

Compound | solubility | solubility (25 °C) | other results
N=C(NCCCCCCNC(=N)NC(=N)Nc1ccc(Cl)cc1)NC(=N)Nc1ccc(Cl)cc1 | – | – | solubility (20 °C): 1.58 mM (≈ 800 µg/mL)
O=C(OCCOCCO)c1ccccc1Nc1cccc(C(F)(F)F)c1 | – | – | solubility (22 °C): 0.00433 mM (≈ 1.6 µg/mL)
CCC1(N2CCCCC2)C(=O)NC(=O)NC1=O | 6.98 mM (≈ 1670 µg/mL) | – | –
O=C1CCC(=O)N1Cl | – | 107 mM (≈ 14300 µg/mL) | –
CC(O)C(Cl)(Cl)Cl (stereo unspecified) | 175 mM (≈ 28600 µg/mL) | – | –
O=C(CCCN1CCC(O)(c2ccc(Cl)cc2)CC1)c1ccc(F)cc1 | – | 0.0372 mM (≈ 14 µg/mL) | –
CC(=O)N(C)N(C(=O)C(=O)N(C)C)c1ccccc1 | – | – | solubility (20 °C): 292 mM (≈ 76900 µg/mL)
CO[C@H]1[C@H](O)[C@H](O[C@H]2CC[C@@]3(C=O)[C@H](CC[C@@H]4[C@@H]3CC[C@]3(C)[C@@H](C5=CC(=O)OC5)CC[C@]43O)C2)O[C@@H](C)[C@@H]1O | – | 0.729 mM (≈ 400 µg/mL) | –
CCC(O)(COC(N)=O)c1ccccc1 (stereo unspecified) | – | 119 mM (≈ 25000 µg/mL) | –
CCCn1cnc2c1c(=O)n(CCCCC(C)=O)c(=O)n2C | – | 104 mM (≈ 32000 µg/mL) | –
CC(=O)c1ccc(O)c(O)c1O | 9.51 mM (≈ 1600 µg/mL) | – | –
COCc1ccc([N+](=O)[O-])o1 | 70 mM (≈ 11000 µg/mL) | – | –
O=C(O)/C=C\C(=O)Nc1ccccc1 | – | – | solubility (27 °C): 5.23 mM (≈ 1000 µg/mL)
CC(=O)C1CCOC1=O (stereo unspecified) | 1560 mM (≈ 200000 µg/mL) | – | –
Nc1ncnc2c1ncn2[C@]1(CO)O[C@H](CO)[C@@H](O)[C@H]1O | – | 26.9 mM (≈ 8000 µg/mL) | –
CCCOc1ccc([N+](=O)[O-])cc1N | – | – | solubility (20 °C): 0.693 mM (≈ 136 µg/mL)
Nc1nc(N)c(O)c(O)n1 | 20.1 mM (≈ 2850 µg/mL) | – | –
CCN(CC)C(=O)CC(C)C | 254 mM (≈ 40000 µg/mL) | – | –
Nc1ccc(S(=O)(=O)O)c2ccc(S(=O)(=O)O)cc12 | 22.8 mM (≈ 6900 µg/mL) | – | –
